ChEMBL document CHEMBL5724914, “Linking interpersonal differences in gut microbiota composition and drug biotransformation activity” (2024)
Where a SMILES comes first, the peptide text is derived from it. [ ]: non-standard residue; d: D form. pGlu = O=C1CC[C@@H](C(=O)O)N1; Thz = O=C(O)[C@@H]1CSCN1

Legend:
[1] = human gut metagenome, 24 h, 2 µM
[2] = (§1) The drug is tested on WLS-098 corresponding to human gut metagenome with ENA study accession number: PRJEB37062 and ENA sample accession number: ERS12561754 for biotransformation under anaerobic condition. The drug concentrations were measured over 9 timepoints collected between 0 and 24 hours of incubation by liquid-chromatography-coupled mass spectrometry (LC–MS); settings: 2 µM
[3] = as §1, with “WLS-077” for “WLS-098”, “ERS12561750” for “ERS12561754”; settings: 2 µM
[4] = as §1, with “WLS-007” for “WLS-098”, “ERS12561742” for “ERS12561754”; settings: 2 µM
[5] = as §1, with “Z-018” for “WLS-098”, “pig” for “human”, “ERS12561817” for “ERS12561754”; settings: 2 µM
[6] = human gut metagenome, 24 h, 2 µM; remark: listed apart in the source
[7] = human gut metagenome, 24 h, 2 µM; remark: listed apart in the source
[8] = human gut metagenome, 24 h, 2 µM; remark: listed apart in the source
[9] = human gut metagenome, 24 h, 2 µM; remark: listed apart in the source
[10] = as §1, with “Z-025” for “WLS-098”, “rabbit” for “human”, “ERS12561824” for “ERS12561754”; settings: 2 µM
[11] = human gut metagenome, 24 h, 2 µM; remark: listed apart in the source
[12] = as §1, with “Z-017” for “WLS-098”, “mouse” for “human”, “ERS12561816” for “ERS12561754”; settings: 2 µM
[13] = human gut metagenome, 24 h, 2 µM; remark: listed apart in the source
[14] = as §1, with “Z-006” for “WLS-098”, “mouse” for “human”, “ERS12561806” for “ERS12561754”; settings: 2 µM
[15] = human gut metagenome, 24 h, 2 µM; remark: listed apart in the source
[16] = as §1, with “Z-013” for “WLS-098”, “rabbit” for “human”, “ERS12561813” for “ERS12561754”; settings: 2 µM
[17] = as §1, with “Z-008” for “WLS-098”, “to” for “to human gut”, “ERS12561808” for “ERS12561754”; settings: 2 µM
[18] = as §1, with “Z-021” for “WLS-098”, “to” for “to human gut”, “ERS12561820” for “ERS12561754”; settings: 2 µM
[19] = as §1, with “Z-012” for “WLS-098”, “to” for “to human gut”, “ERS12561812” for “ERS12561754”; settings: 2 µM
[20] = human gut metagenome, 24 h, 2 µM; remark: listed apart in the source
Note: call rule not given here.

SMILES | Bacterial Biotransformation [1] | Bacterial Biotransformation [2] | Bacterial Biotransformation [3] | Bacterial Biotransformation [4] | Bacterial Biotransformation [5] | Bacterial Biotransformation [6] | Bacterial Biotransformation [7] | Bacterial Biotransformation [8] | Bacterial Biotransformation [9] | Bacterial Biotransformation [10] | Bacterial Biotransformation [11] | Bacterial Biotransformation [12] | Bacterial Biotransformation [13] | Bacterial Biotransformation [14] | Bacterial Biotransformation [15] | Bacterial Biotransformation [16] | Bacterial Biotransformation [17] | Bacterial Biotransformation [18] | Bacterial Biotransformation [19] | Bacterial Biotransformation [20]
C#C[C@]1(O)CC[C@H]2[C@@H]3CCC4=CC(=O)CC[C@@H]4[C@H]3CC[C@@]21CC [LEVONORGESTREL] | Compound metabolized | Compound metabolized | Compound metabolized | Compound metabolized | Compound metabolized | Compound metabolized | Compound metabolized | Compound metabolized | Compound metabolized | Compound metabolized | Compound metabolized | Compound metabolized | Compound metabolized | Compound metabolized | Compound metabolized | Compound metabolized |  |  |  | 
CCCCCCOC(=O)/N=C(/N)c1ccc(NCc2nc3cc(C(=O)N(CCC(=O)OCC)c4ccccn4)ccc3n2C)cc1.CS(=O)(=O)O [DABIGATRAN ETEXILATE MESYLATE] |  |  |  |  | Compound NOT metabolized |  |  | Compound NOT metabolized | Compound NOT metabolized | Compound NOT metabolized |  | Compound NOT metabolized |  | Compound NOT metabolized |  | Compound NOT metabolized | Compound NOT metabolized | Compound NOT metabolized | Compound NOT metabolized | 
O=C1CC[C@@H](C(=O)N2CSC[C@H]2C(=O)O)N1 [PIDOTIMOD] ([pGlu]-[Thz]-OH) |  | Compound NOT metabolized | Compound NOT metabolized |  | Compound metabolized | Compound NOT metabolized | Compound NOT metabolized | Compound NOT metabolized | Compound NOT metabolized | Compound NOT metabolized | Compound metabolized | Compound NOT metabolized |  | Compound NOT metabolized | Compound NOT metabolized | Compound NOT metabolized |  |  | Compound NOT metabolized | Compound NOT metabolized
c1ccc([C@H]2CN3CCSC3=N2)cc1 [LEVAMISOLE] | Compound metabolized |  |  | Compound metabolized | Compound metabolized | Compound metabolized | Compound metabolized | Compound metabolized | Compound metabolized | Compound NOT metabolized | Compound metabolized | Compound NOT metabolized | Compound metabolized | Compound metabolized | Compound metabolized | Compound NOT metabolized |  |  | Compound NOT metabolized | Compound metabolized
O=C(NCc1ccccc1)OCCO [BURAMATE] | Compound NOT metabolized | Compound NOT metabolized | Compound NOT metabolized | Compound NOT metabolized | Compound NOT metabolized | Compound NOT metabolized | Compound NOT metabolized | Compound NOT metabolized | Compound NOT metabolized | Compound NOT metabolized | Compound NOT metabolized |  | Compound NOT metabolized | Compound NOT metabolized | Compound NOT metabolized | Compound NOT metabolized | Compound NOT metabolized | Compound NOT metabolized | Compound NOT metabolized | Compound NOT metabolized
